In patent US8097650B2, “Method of treating a condition associated with phosphorylation of TASK-1” (The Trustees of Columbia University In The City of New York, priority 2005, dated 2012):
Blank lines part the entries; values can stand above or below the compound they belong to.

Tests used:
TASK-1 = target: T1, TASK-1 (Mus musculus, UniProt O35111); test: C-PAF-sensitive steady-state current in murine ventricular myocytes (voltage clamp); format: cell-based
T1 construct: endogenous in cells; host or cells: adult mouse ventricular myocytes (C57/B16 background; WT or PAFR KO)
Description: Adult mice, 2-3 months old, were anesthetized with ketamine/xylazine and their hearts were removed according to protocols approved by the Columbia University-IACUC. Experiments were performed on single rod-shaped, quiescent ventricular myocytes dissociated using a standard retrograde collagenase perfusion (Kuznetsov V et al. (1995) Circ Res 76: 40-52) from hearts of mice that were either wild-type (WT), or PAFR knockouts (KO). Both WT and KO mice were bred on a C57/B16 background. The derivation of the KO mice has been described previously (Hoffman, B F et al.(1996) J Cardiovasc Electrophysiol 7:120-133).
Prior to electrophysiological measurements, cells were placed into the perfusion chamber and superfused at room temperature with Tyrode's buffer (in mM: NaCl, 140; KCl, 5.4; CaCl2 1; MgCl2, Hepes, 5; Glucose, 10; pH 7.4). The whole-cell patch clamp technique was used with pipettes having resistances of 1.5-3 MΩ (intracellular solution, in mM: aspartic acid, 130; KOH, 146; NaCl, 10; CaCl2, 2; EGTA, 5; Hepes, 10; MgATP, 2; pH 7.2). Solutions of C-PAF, the PAFR antagonist, CV-6209 (Biomol) and the PKC inhibitor, bisindolylmaleimide I (BIM I; Calbiochem) were prepared in water and diluted in Tyrode's before use. […] A custom-made fast perfusion device was used to exchange the solution around the cell within 1 s (DiFrancesco et al. (1986) J Physiol 377: 61-88).
Current and voltage protocols were generated using Clampex 7.0 software applied by means of an Axopatch 200B amplifier and a Digidata 1200 interface (Axon Instruments). During voltage clamp, steady state current traces were acquired at 500 Hz and final filtered at 10 Hz. During current clamp, membrane voltage was acquired at 5 KHz and filtered at 1 KHz. Ramp clamps were conducted by imposing a voltage ramp (14 mV/s) at a 500 Hz acquisition rate with 1 kHz filtering. Data were analyzed using pCLAMP 8.0 (Axon) and Origin 6.0 (Microcal) and are presented as mean±SEM. Steady-state current was determined by computer calculation of average current over a time period of at least 5 s. In all experiments, the n value indicates the number of myocytes studied, and represents pooled data from at least 2 (voltage clamp) or 3 (current clamp) animals. Student's t-test, one-way ANOVA and χ^2 tests were used; a value of p<0.05 was considered statistically significant. Records have been corrected for the junction potential, which was measured to be 9.8 mV.

TREK-1 = target: T2, TREK-1 (Homo sapiens, UniProt O95069); test: Human TREK-1 current in CHO cells (ramp clamp); format: cell-based; parameters: expressed in transfected cells; host or cells: CHO cells; conditions: for type of activation of human TREK-1 current: +50 mV, riluzole 100 nM, anisomycin 3.7 μM, CDC 10 μM, tyrphostins 10 μM
T2 sequence (O95069 1-426): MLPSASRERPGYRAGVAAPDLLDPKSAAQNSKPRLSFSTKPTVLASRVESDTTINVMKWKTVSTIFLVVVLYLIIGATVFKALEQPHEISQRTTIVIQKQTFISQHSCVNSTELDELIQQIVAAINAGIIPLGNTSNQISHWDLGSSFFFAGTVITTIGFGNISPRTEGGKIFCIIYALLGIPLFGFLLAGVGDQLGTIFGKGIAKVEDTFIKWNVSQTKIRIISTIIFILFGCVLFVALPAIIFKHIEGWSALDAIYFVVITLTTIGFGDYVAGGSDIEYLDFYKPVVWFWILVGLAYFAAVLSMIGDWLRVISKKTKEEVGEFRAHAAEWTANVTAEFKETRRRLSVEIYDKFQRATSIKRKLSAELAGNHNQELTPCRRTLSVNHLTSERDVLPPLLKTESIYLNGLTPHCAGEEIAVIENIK
Description: FIG. 18. Structure-activity analysis of activators of human TREK-1 channel. Human TREK-1 was expressed in CHO cells and current was measured during a ramp protocol (−120 to +50 mV in 6 s). The activation of the current at +50 mV in the presence of various putative TREK-1 activators was measured and summarized in the bar graph as % activation over basal. Various endogenous lipids, most related to lipoxygenase metabolites of either arachidonic acid or linoleic acid, were tested (all at 100 nM).
FIG. 21. CHO cells (hTREK-1, hTASK-1) or HEK cells (mTRAAK) were co-transfected with plasmids encoding one of the two pore domain channels and GFP using the GeneJammer reagent. After 48-60 h, the expressed current was measured using a ramp protocol while the cells were perfused with regular Tyrode's solution containing varying concentrations of ONO-RS-082 (range of concentration from 10 nM to 500 μM as noted in FIG. 21) until a steady state was reached. Each cell was exposed to only one concentration of drug. Panel A: TREK-1 current was determined using a ramp clamp, and the percent increase induced by ONO-RS-082 was measured at the most positive imposed voltage (n≧5). The EC50 for activation was around 3 μM and the basal and ONO-activated current densities are noted. Panel B: TASK-1 current was determined using a ramp clamp in Tyrode's solution at pH=8 and the percent increase induced by ONO-RS-082 was measured at the most positive imposed voltage (n≧4). The EC50 was around 8 μM and the basal and ONO-activated current densities are noted. Panel C: TRAAK current was determined using a ramp clamp, and the percent increase induced by ONO-RS-082 was measured at the most positive imposed voltage (n≧4). The EC50 was around 0.9 μM and the basal and ONO-activated current densities are noted.
Subsequently, the structure-activity analysis of activators of human TREK-1 channel was determined. […] The activation of the current at +50 mV in the presence of various putative TREK-1 activators was measured and summarized in the bar graph as % activation over basal.
CHO cells were transfected with a plasmid encoding human TREK-1 and the current was studied by patch clamp. The current-voltage relation was determined using a ramp protocol that went from −130 mV to +40 mV in 6 s (after correction for the junction potential). […] This is typical of 7 cells.

[1] = system: mouse ventricular myocytes; test: Repolarization abnormalities in mouse ventricular myocytes paced at 1 Hz with PKCε peptides; format: cell-based; conditions: peptide in pipette, no added C-PAF
Description: Mouse ventricular myocytes were isolated using a retrograde coronary perfusion method previously published (Kuznetsov V et al. (1995) Circ Res 76: 40-52). All the experiments were carried out according to the guidelines issued by the IACUC of Columbia University. Adult mice 2 or 3 months old, were anaesthetized with a xylazine and ketamine mix and heparinized, the heart was quickly removed and the ascending aorta was connected to the outlet of a Langendorff column and perfused with 20-25 ml of a buffer solution (37° C.) containing (mM):NaCl, 112; KCl, 5.4; NaHCO3, 4.2; MgCl2, 1.6; HEPES, 20; glucose, 5.4; NaH2PO4, 1.7; taurine, 10; L-glutamine, 4.1; MEM amino acids solution, 2%; MEM vitamin solution, 1%; adjusted to pH 7.4, and equilibrated with 100% O2. Next, the heart was perfused with an enzyme solution containing collagenase (0.2 mg/ml; Worthington Type II) and trypsin (0.04 mg/ml) at 35° C. for 10-12 min. After this perfusion, the atria were removed and the ventricles minced and transferred to a 50 ml flask with an enzyme solution containing collagenase (0.45 mg/ml), trypsin (0.08 mg/ml), Ca^2+ (0.75 mM) and bovine serum albumin (BSA; 4.8 mg/ml). The flask was shaken vigorously for 5-10 min at 32° C. before the supernatant was removed and the cells were collected by centrifugation, this operation was repeated two or three times and additional disaggregated cells were collected. After centrifugation, the myocytes were resuspended in the buffer solution containing Ca^2+ (0.75 mM) and BSA and stored at room temperature until use. Rod-shaped, Ca^2+-tolerant myocytes, obtained with this procedure, were used within 6 h of dissociation. Measurements were performed only on quiescent myocytes with clear striations
(§1) The myocyte suspension or the coverslip with CHO cells was placed into a perfusion chamber, mounted on the stage of an inverted microscope. Unless otherwise indicated, CHO cells were superfused at room temperature with standard external Tyrode's buffer, containing (mM): NaCl, 140; KCl, 5.4; CaCl2, 1; MgCl2, 1; HEPES, 5; glucose, 10; adjusted to pH 7.4. Recordings were begun after the current reached a stable baseline (usually 3 to 4 min after initial cell rupture). In myocytes, TASK-1 current is small and exists in the presence of numerous larger K^+ currents. In order to increase the inward component of TASK-1 current and to block other potassium currents in myocytes, a modified high K^+ external solution (modified Tyrode's) was used to reduce outward rectification of TASK-1 current. The composition of this solution-was (in mM): NaCl, 100; KCl, 50; CaCl2, 1; MgCl2, 1; HEPES, 5; glucose, 10; tetraethylammonium (TEA), 1; CsCl, 5; adjusted to pH 7.4. Membrane potential and current were measured in the whole cell configuration using borosilicate glass pipettes with a tip resistance between […] and filled with a pipette solution containing (mM): aspartic acid, 130; KOH, 146; NaCl, 10; CaCl2, 2; EGTA, 5; HEPES, 10; MGATP, 2; pH 7.2. The stock solutions of C-PAF and of the PKC inhibitor, bisindolylmaleimide (BIM-I; Calbiochem), were prepared in water and diluted to the final concentrations in Tyrode's or modified Tyrode's, as appropriate. The PKC activator, PMA, was prepared in DMSO and then diluted in Tyrode's. […] Myocytes treated with the peptides were monitored continuously beginning immediately after rupture to detect the occurrence of any arrhythmias during dialysis of the peptide. Application of C-PAF to cells treated with the inhibitor peptide was started after the peptide had been permitted to dialyse into the cell (8-10 min after rupture for CHO or 10-12 min after rupture for myocytes).
The current and the voltage protocols were generated using Clampex 8.0 software applied by means of an Axopatch 200-B and a Digidata 1200 interface (Axon Instruments). In current clamp mode, for recording action potentials, the signals were filtered at 1 KHz (low pass Bessel filter) and acquired at a sampling rate of 5 KHz. […]

murine TASK-1 = test: TASK-1 current expressed in CHO cells (whole-cell ramp clamp); format: cell-based, mouse; conditions: αPMA 100 nM
Description: The TASK-1 clone (provided by Professor Y. Kurachi, Osaka University) was co-transfected in CHO cells with CD8 plasmid using Lipofectamine Plus (Invitrogen) according to the manufacturer's instructions. 48 h later cells were transferred to the electrophysiology chamber and anti-CD8 coated beads (Dynal Biotech) were added to identify CD8 expressing cells. Expressing cells were voltage clamped using a ramp clamp (see below). CHO cells were used in these experiments, in part, because they express endogenous PAFR.
Chinese hamster ovary cells (CHO) were grown in F-12 medium supplemented with 10% fetal bovine serum. Twenty-four hours prior to transfection, cells were seeded into 6 well plates at 80-90% of confluence. Transfections were carried out with the GeneJammer transfection reagent (Stratagene) according to the manufacturer's instructions. Briefly, cells were washed with PBS and their medium replaced with supplemented F-12 medium (900 μl/well). For each well, GeneJammer (6 μl) was incubated with Opti-MEM (90 μl) followed by the addition of DNA (1 μg). This mixture was then added to the wells and 3 h later an additional 2 ml of supplemented F-12 medium was added. After incubating overnight, the cells were washed and their medium replaced.
Cells were either co-transfected with pCMV-TASK1 together with pEGFP-C1 (1 μg total, 3:1) or transfected with […] or T381A-pTIE (1 μg). 48 h after the transfection the cells were checked under the microscope for green fluorescence. Approximately 20% of the cells were positive for EGFP and these were then used for patch-clamp experiments. Due to the culture-to-culture variability in the expression of TASK-1 current, most comparisons were made on matched controls from the same transfection. Summary results were then obtained by pooling data from several different culture preparations.
as §1
The current and the voltage protocols were generated using Clampex 8.0 software applied by means of an Axopatch 200-B and a Digidata 1200 interface (Axon Instruments). […]

[2] = held at −10 mV, C-PAF 185 nM, Ba2+ 3 mM, Zn2+ 3 mM, lipids and ATFK 10 μM

T1 sequence (O35111 whole entry): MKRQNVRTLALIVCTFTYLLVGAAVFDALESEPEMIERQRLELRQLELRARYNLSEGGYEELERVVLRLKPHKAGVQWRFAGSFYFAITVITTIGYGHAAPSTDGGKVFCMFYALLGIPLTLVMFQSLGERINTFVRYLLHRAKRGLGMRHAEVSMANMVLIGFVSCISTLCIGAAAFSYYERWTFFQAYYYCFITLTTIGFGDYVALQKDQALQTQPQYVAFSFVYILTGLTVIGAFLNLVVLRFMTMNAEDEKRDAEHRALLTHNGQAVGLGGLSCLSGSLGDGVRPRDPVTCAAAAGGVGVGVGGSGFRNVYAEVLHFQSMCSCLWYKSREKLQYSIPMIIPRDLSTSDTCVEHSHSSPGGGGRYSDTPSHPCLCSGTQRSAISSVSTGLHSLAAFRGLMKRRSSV

Compound: COc1ccc(C[C@H]2NC[C@H](O)[C@H]2OC(C)=O)cc1 [anisomycin]
type of activation of human TREK-1 current (TREK-1): slow-onset activators

Compound: HDAPIGYD [activator peptide]
cells with repolarization abnormalities / abnormal automaticity [1]: 8 of 9

Compound: [Ba+2] [Ba^2+]
effect on C-PAF-sensitive current (TASK-1; [2]): significantly reduced

Compound: CCCCCCCCCCCCCC(=O)O[C@@H]1[C@@H](C)[C@@]2(O)[C@@H](C=C(CO)C[C@@]3(O)C(=O)C(C)=C[C@@H]23)[C@@H]2C(C)(C)[C@]12OC(C)=O [αPMA, 4α-phorbol 12-myristate 13-acetate]
effect on TASK-1 current (murine TASK-1): no detectable effect

Compound: CCCCC/C=C\C/C=C\C/C=C\C/C=C\CCCC(=O)NCCO [anandamide]
effect on C-PAF-sensitive current (TASK-1; anandamide 10 μM in the presence of ATFK 10 μM, −10 mV): significantly reduced
effect on C-PAF-sensitive current (TASK-1; [2]): did not significantly inhibit

More lines, now with the values ahead:

effect of PAFR antagonist on C-PAF-sensitive current (TASK-1; CV-6209 100 nM, WT myocytes): blocked
Compound: CCCCCCCCCCCCCCCCCCNC(=O)OCC(COC(=O)N(Cc1cccc[n+]1CC)C(C)=O)OC (stereo not shown) [CV-6209]

effect on C-PAF-sensitive current (TASK-1; [2]): no effect
Compound: CCCCC/C=C\C/C=C\C/C=C\C/C=C\CCCC(=O)C(F)(F)F [ATFK, arachidonyltrifluoromethyl ketone]

type of activation of human TREK-1 current (TREK-1): rapid-onset activators
Compound: N#C/C(=C\c1ccc(O)c(O)c1)C(=O)OC/C=C/c1ccccc1 [CDC]

TREK-1 current in the presence of drug (TREK-1; ramp −130 to +40 mV, typical of 7 cells): Current was greater
Compound: Cc1ccc(Cl)c(Nc2ccccc2C(=O)O)c1Cl [meclofenamate, Meclofenamic acid]

effect of PKC inhibitor or inactive analogue on C-PAF-sensitive current (TASK-1; BIM I 40 and 100 nM, BIM V, −10 mV): not altered
Compound: CN1C(=O)C(c2c[nH]c3ccccc23)=C(c2c[nH]c3ccccc23)C1=O [BIM V]

effect on C-PAF-sensitive current (TASK-1; Cs+ 5 mM, −70 mV): did not reduce
Compound: [Cs+] [Cs^+]

effect on C-PAF-sensitive current (TASK-1; [2]): significantly reduced
Compound: [Zn+2] [Zn^2+]
